Values joined by “and” are separate entries in the source; they are usually repeats but may differ in a detail not shown here. Equal values may be shown once. “Also recorded” adds a separate entry of the source. Read-outs that look alike come from different tables or passages of the source.
Tests used:
[1] = phase I pharmacokinetics in plasma and urine; assay type: in vivo, human
Experimental: (§1) Preclinical testing confirmed promising antiproliferative activity. […] Physical examination was performed weekly. […] N-Acetyl-SPERMINE SSAT SSAT […] Analysis was descriptive only. […] Patient characteristics are described in Table 1. […] Three patients completed the full six cycles of treatment. Of these, two received the combination 5FU/SAM486A from cycle 3 onwards. Five patients recorded a best response of stable disease. Of these, three received the combination 5FU/SAM486A from cycle 3 onwards (see below).

[2] = test system: solid tumours; test: phase I clinical efficacy (UICC tumour response, markers, FDG-PET); assay type: in vivo, human
Experimental: as §1

[3] = test system: polyamine pools and SAMDC activity in leukocytes; test: polyamines and SAMDC activity in peripheral blood leukocytes; assay type: in vivo, human
Experimental: as §1

[4] = test system: S-adenosylmethionine decarboxylase (SAMDC); settings: cited from earlier work
[5] = test system: tumour; design: method as in Gschaidmeier et al, 1999, O'Reilly et al, 2000; settings: in vitro and in vivo; ref Gschaidmeier et al, 1999, O'Reilly et al, 2000; cited from earlier work
[6] = design: method as in unpublished; settings: rat, basis of starting dose; ref unpublished; cited from earlier work
[7] = design: method as in data on file; settings: rats and dogs; ref data on file; cited from earlier work
[8] = test system: human HCT-116 tumour cell line; design: method as in data on file; settings: subcutaneous HCT-116 in nude mice; ref data on file; cited from earlier work
[9] = short-term single or repeat bolus injections of high doses; preclinical background, ref not given; cited from earlier work
[10] = phase I safety and tolerability, 120 h continuous infusion every 4 weeks
[11] = Table 3, 6 mg m-2 cycle-1, 4 patients studied
[12] = Table 3, 12 mg m-2 cycle-1, 3 patients studied
[13] = Table 3, 24 mg m-2 cycle-1, 3 patients studied
[14] = Table 3, 400 mg m-2 cycle-1, 6 patients studied
[15] = Table 3, 550 mg m-2 cycle-1, 6 patients studied
[16] = Table 3, 700 mg m-2 cycle-1, 5 patients studied
[17] = Table 3, all dose levels, 39 patients
[18] = Table 3, all dose levels, 39 patients, incl. combination
[19] = Table 4, after infusion (day 6-28), 550 mg m-2 cycle-1, 6 patients studied
[20] = Table 4, after infusion (day 6-28), 700 mg m-2 cycle-1, 5 patients studied
[21] = Table 4, after infusion (day 6-28), all dose levels, 39 patients
[22] = Table 4, after infusion (days 6-28), 3 mg m-2 cycle-1, 3 patients studied
[23] = Table 4, after infusion (days 6-28), 6 mg m-2 cycle-1, 4 patients studied
[24] = Table 4, after infusion (days 6-28), 24 mg m-2 cycle-1, 3 patients studied
[25] = Table 4, after infusion (days 6-28), 96 mg m-2 cycle-1, 3 patients studied
[26] = Table 4, after infusion (days 6-28), 400 mg m-2 cycle-1, 6 patients studied
[27] = Table 4, after infusion (days 6-28), 550 mg m-2 cycle-1, 6 patients studied
[28] = Table 4, after infusion (days 6-28), 700 mg m-2 cycle-1, 5 patients studied
[29] = Table 4, after infusion (days 6-28), all dose levels, 39 patients
[30] = Table 4, during infusion (day 1-5), 700 mg m-2 cycle-1, 5 patients studied
[31] = Table 4, during infusion (day 1-5), all dose levels, 39 patients

N=C(N)c1cccc2c1CCC2=NN=C(N)N [SAM486A]
mean terminal elimination t1/2 ([1]; all patients included in the analysis, standard deviation 23.1 h): 48.6 h
fraction of total drug administered excreted in urine ([1]; day 1): Approximately 3%
plasma SAM486A concentrations ([1]; first 10 patients at lowest dose levels, significant portions of sampling interval): below the limit of quantitation
terminal half-life (approximate) ([1]; plasma, patients): approximately 2 days
objective tumour response ([2]; 39 patients): No objective remission; also recorded: No complete or partial responses
patients with stable disease as best response ([2]; 39 patients): five
tumour markers (CEA, CA 15.3) post-baseline ([2]; six evaluable patients): No trends towards decreases
FDG-PET result after first 5-day infusion ([2]; two patients, 400 mg m-2 cycle-1): stable disease at best
evaluable patients with marginal trend to increased SAMDC activity ([3]; 400 mg m-2 cycle-1 and above): eight of 13
evaluable patients with trend to increased putrescine ([3]; 400 mg m-2 cycle-1 and above): 10 of the 11
evaluable patients with trend to increased putrescine ([3]; 3-200 mg m-2 cycle-1): six of the 12
evaluable patients with marginal trend to increased SAMDC activity ([3]; doses up to 200 mg m-2 cycle-1): nine of 18
expected concomitant decrease in spermidine and spermine ([3]; peripheral blood leukocytes): could not be detected
fold more active than MGBG ([4]; SAMDC inhibition in vitro, ref Regenass et al, 1994): approximately 200 fold
IC50 ([4]; as quoted in results and discussion, read-out: IC50 required in in vitro experiments for inhibition of SAMDC): 4.7 nM
IC50 for inhibition of SAMDC as plasma concentration ([4]; as quoted in results): 1.1 ng/mL
IC50 ([4]; in vitro, ref Regenass et al, 1994, read-out: IC50 for SAMDC): 4.7 nM
effect of combination with 5FU and with cisplatin [5]: Additive to synergistic effects
no-adverse-effect level [6]: 0.06 mg/kg/day
metabolism and excretion [7]: hardly metabolized and predominantly renally excreted
plasma clearance and distribution [7]: multi-exponential with extensive distribution outside the plasma compartment
drug level in tumours compared to plasma elimination profile [8]: marked accumulation of the drug was seen in tumours
acute toxicity findings [9]: acute cardiovascular and respiratory
patients with grade 4 granulocytopenia ([10]; 550 mg m-2 cycle-1, six patients): three
maximum tolerated dose (MTD) ([10]; 120 h continuous infusion every 4 weeks): 400 mg m-2 cycle-1
correlation coefficient AUC vs granulocytopenia ([10]; Figure 4): 0.6931
correlation coefficient dose vs granulocytopenia ([10]; Figure 4): 0.5814
Haemoglobin grade 1-4, no. of patients ([10]; Table 3, 3 mg m-2 cycle-1, 3 patients studied): 2 patients
Haemoglobin grade 1-4, no. of patients [10, 11]: 2 patients
Thrombocytes (platelets) grade 1-4, no. of patients [10, 11]: 1 patients
Thrombocytes grade 3-4, no. of patients [10, 11]: 1 patients
Haemoglobin grade 1-4, no. of patients [10, 12]: 2 patients
Haemoglobin grade 3-4, no. of patients [10, 12]: 1 patients
Haemoglobin grade 1-4, no. of patients [10, 13]: 3 patients
Haemoglobin grade 3-4, no. of patients [10, 13]: 1 patients
Haemoglobin grade 1-4, no. of patients ([10]; Table 3, 48 mg m-2 cycle-1, 4 patients studied): 2 patients
Haemoglobin grade 1-4, no. of patients ([10]; Table 3, 96 mg m-2 cycle-1, 3 patients studied): 1 patients
Leukocytes (WBC) grade 1-4, no. of patients ([10]; Table 3, 200 mg m-2 cycle-1, 2 patients studied): 1 patients
Granulocytes (AGC) grade 1-4, no. of patients [10, 14]: 2 patients
Granulocytes (AGC) grade 3-4, no. of patients [10, 14]: 1 patients
Haemoglobin grade 1-4, no. of patients [10, 14]: 3 patients
Leukocytes (WBC) grade 1-4, no. of patients [10, 14]: 2 patients
Granulocytes (AGC) grade 1-4, no. of patients [10, 15]: 4 patients
Granulocytes (AGC) grade 3-4, no. of patients [10, 15]: 4 patients
Haemoglobin grade 1-4, no. of patients [10, 15]: 4 patients
Haemoglobin grade 3-4, no. of patients [10, 15]: 1 patients
Leukocytes (WBC) grade 1-4, no. of patients [10, 15]: 5 patients
Leukocytes (WBC) grade 3-4, no. of patients [10, 15]: 3 patients
Thrombocytes (platelets) grade 1-4, no. of patients [10, 15]: 1 patients
Thrombocytes grade 3-4, no. of patients [10, 15]: 1 patients
Granulocytes (AGC) grade 1-4, no. of patients [10, 16]: 4 patients
Granulocytes (AGC) grade 3-4, no. of patients [10, 16]: 3 patients
Haemoglobin grade 1-4, no. of patients [10, 16]: 2 patients
Haemoglobin grade 3-4, no. of patients [10, 16]: 1 patients
Leukocytes (WBC) grade 1-4, no. of patients [10, 16]: 4 patients
Leukocytes (WBC) grade 3-4, no. of patients [10, 16]: 3 patients
Thrombocytes (platelets) grade 1-4, no. of patients [10, 16]: 2 patients
Haemoglobin grade 1-4, Total (%) [10, 17]: 21 (54) patients (%)
Haemoglobin grade 3-4, Total (%) [10, 17]: 4 (10) patients (%)
Thrombocytes grade 3-4, Total (%) [10, 17]: 2 (5) patients (%)
Granulocytes (AGC) grade 1-4, Total (%) [10, 18]: 12 (31) patients (%)
Granulocytes (AGC) grade 3-4, Total (%) [10, 18]: 9 (23) patients (%)
Leukocytes (WBC) grade 1-4, Total (%) [10, 18]: 14 (36) patients (%)
Leukocytes (WBC) grade 3-4, Total (%) [10, 18]: 7 (18) patients (%)
Fatigue grade 3-4, no. of patients ([10]; Table 4, after infusion (day 6-28), 400 mg m-2 cycle-1, 6 patients studied): 1 patients
Anorexia grade 3-4, no. of patients [10, 19]: 1 patients
Atrial fibrillation grade 3-4, no. of patients [10, 19]: 1 patients
Condition aggravated grade 3-4, no. of patients [10, 19]: 1 patients
Dementia grade 3-4, no. of patients [10, 20]: 1 patients
Dyspnea grade 3-4, no. of patients [10, 20]: 1 patients
Fatigue grade 3-4, no. of patients [10, 20]: 1 patients
Somnolence grade 3-4, no. of patients [10, 20]: 1 patients
Vesicular rash grade 3-4, no. of patients [10, 20]: 1 patients
Anorexia grade 3-4, Total (%) [10, 21]: 1 (3) patients (%)
Atrial fibrillation grade 3-4, Total (%) [10, 21]: 1 (3) patients (%)
Condition aggravated grade 3-4, Total (%) [10, 21]: 1 (3) patients (%)
Dementia grade 3-4, Total (%) [10, 21]: 1 (3) patients (%)
Dyspnea grade 3-4, Total (%) [10, 21]: 1 (3) patients (%)
Fatigue grade 3-4, Total (%) [10, 21]: 2 (5) patients (%)
Somnolence grade 3-4, Total (%) [10, 21]: 1 (3) patients (%)
Vesicular rash grade 3-4, Total (%) [10, 21]: 1 (3) patients (%)
Mucositis nos grade 3-4, Total (%) ([10]; Table 4, after infusion (day 6-28), all dose levels, 39 patients, incl. combination): 1 (3) patients (%)
Anorexia grade 1-4, no. of patients [10, 22]: 1 patients
Fatigue grade 1-4, no. of patients [10, 22]: 1 patients
Fatigue grade 1-4, no. of patients [10, 23]: 1 patients
Nausea grade 1-4, no. of patients [10, 23]: 1 patients
Fatigue grade 1-4, no. of patients ([10]; Table 4, after infusion (days 6-28), 12 mg m-2 cycle-1, 3 patients studied): 1 patients
Fatigue grade 1-4, no. of patients [10, 24]: 1 patients
Nausea grade 1-4, no. of patients [10, 24]: 1 patients
Vomiting grade 1-4, no. of patients [10, 24]: 1 patients
Nausea grade 1-4, no. of patients [10, 25]: 1 patients
Vomiting grade 1-4, no. of patients [10, 25]: 1 patients
Anorexia grade 1-4, no. of patients [10, 26]: 3 patients
Fatigue grade 1-4, no. of patients [10, 26]: 2 patients
Nausea grade 1-4, no. of patients [10, 26]: 1 patients
Anorexia grade 1-4, no. of patients [10, 27]: 1 patients
Fatigue grade 1-4, no. of patients [10, 27]: 2 patients
Nausea grade 1-4, no. of patients [10, 27]: 3 patients
Vomiting grade 1-4, no. of patients [10, 27]: 3 patients
Fatigue grade 1-4, no. of patients [10, 28]: 2 patients
Nausea grade 1-4, no. of patients [10, 28]: 2 patients
Vomiting grade 1-4, no. of patients [10, 28]: 3 patients
Anorexia grade 1-4, Total (%) [10, 29]: 5 (13) patients (%)
Fatigue grade 1-4, Total (%) [10, 29]: 10 (26) patients (%)
Vomiting grade 1-4, Total (%) [10, 29]: 8 (21) patients (%)
Nausea grade 1-4, Total (%) ([10]; Table 4, after infusion (days 6-28), all dose levels, 39 patients, incl. combination): 10 (26) patients (%)
Asthenia grade 3-4, no. of patients ([10]; Table 4, during infusion (day 1-5), 550 mg m-2 cycle-1, 6 patients studied): 1 patients
Condition aggravated grade 3-4, no. of patients [10, 30]: 1 patients
Vesicular rash grade 3-4, no. of patients [10, 30]: 1 patients
Vomiting grade 3-4, no. of patients [10, 30]: 1 patients
Asthenia grade 3-4, Total (%) [10, 31]: 1 (3) patients (%)
Condition aggravated grade 3-4, Total (%) [10, 31]: 1 (3) patients (%)
Vesicular rash grade 3-4, Total (%) [10, 31]: 1 (3) patients (%)
Vomiting grade 3-4, Total (%) [10, 31]: 1 (3) patients (%)
Nausea grade 1-4, no. of patients ([10]; Table 4, during infusion (days 1-5), 400 mg m-2 cycle-1, 6 patients studied): 1 patients
Nausea grade 1-4, no. of patients ([10]; Table 4, during infusion (days 1-5), 550 mg m-2 cycle-1, 6 patients studied): 2 patients
Nausea grade 1-4, no. of patients ([10]; Table 4, during infusion (days 1-5), 700 mg m-2 cycle-1, 5 patients studied): 2 patients
Nausea grade 1-4, Total (%) ([10]; Table 4, during infusion (days 1-5), all dose levels, 39 patients): 5 (13) patients (%)
mild to moderate nausea and vomiting, incidence ([10]; after infusion, any causality): 31%
fatigue, incidence in all patients ([10]; after the infusion, any causality): 51%
anorexia considered related to SAM486A, incidence ([10]; all patients): 13%
fatigue considered related to SAM486A, incidence ([10]; all patients): 26%
nausea considered related to SAM486A, incidence ([10]; all patients): 26%
vomiting considered related to SAM486A, incidence ([10]; all patients): 21%
mild to moderate nausea and vomiting, incidence ([10]; during infusion, any causality): 15%
changes in electrolytes, renal function, LVEF ([10]; in vivo): no significant drug-related changes
correlation coefficient Cmax vs granulocytopenia ([10]; in vivo): 0.6794
dose with reversible dose-limiting neutropenia ([10]; in vivo): 550 mg m^–2cycle^–1 and 700 mg m^–2cycle^–1
fever associated with granulocytopenia ([10]; in vivo): three
median day of granulocyte nadir ([10]; in vivo): 21 day of the cycle
patients with grade 4 granulocytopenia ([10]; in vivo): three out of five
patients with some worsening in performance status ([10]; in vivo): eight of the 11
recommended dose for phase II studies ([10]; in vivo): 400 and 400 mg m-2 cycle-1
time to spontaneous recovery from granulocyte nadir ([10]; without growth factors): ≤ 1 week

From article PMC2363502
